In brackets after ≈: the same amount, converted by molar mass. Activity calls are given as the source filed them. The rule behind the calls is not given here. Where a SMILES comes first, the peptide text is derived from it. Side-chain parts run from the residue outwards. [ ]: non-standard residue; d: D form. The star is where a group is joined. Lys(α,ε-(ArgTrp)2) = N=C(N)NCCC[C@H](N)C(=O)N[C@@H](Cc1c[nH]c2ccccc12)C(=O)NCCCC[C@H](NC(=O)[C@H](Cc1c[nH]c2ccccc12)NC(=O)[C@@H](N)CCCNC(=N)N)C(=O)*; βAla = NCCC(=O)O
Columns and labels:
[1] = test system: Escherichia coli; assay: Reduction of hydroxyl radical production in deltaicdA knockout Escherichia coli at 5 to 25 ug/ml after 1 hr by flow cytometry analysis; type: functional, organism-based
[2] = test system: Escherichia coli; assay: Induction of hydroxyl radical production in Escherichia coli at 5 to 25 ug/mL after 1 hr by measuring increase in hydroxyphenyl fluorescein emission by flow cytometry analysis in presence of thiourea; type: functional, organism-based
[3] = test system: Escherichia coli; assay: Reduction of hydroxyl radical production in […] knockout Escherichia coli at 5 to 25 ug/ml after 1 hr by flow cytometry analysis; type: functional, organism-based
[4] = test system: Escherichia coli; assay: Reduction of hydroxyl radical production in deltaacnB knockout Escherichia coli at 5 to 25 ug/ml after 1 hr by flow cytometry analysis; type: functional, organism-based
[5] = test system: Escherichia coli; assay: Induction of hydroxyl radical production in Escherichia coli at 5 to 25 ug/mL after 2 hrs by measuring increase in hydroxyphenyl fluorescein emission by flow cytometry analysis; type: functional, organism-based
[6] = test system: Escherichia coli; assay: Induction of hydroxyl radical production in Escherichia coli at 5 to 25 ug/mL after 1 hr by measuring increase in hydroxyphenyl fluorescein emission by flow cytometry analysis; type: functional, organism-based
[7] = test system: Escherichia coli; assay: Induction of hydroxyl radical production in deltaiscS knockout Escherichia coli at 5 to 25 ug/mL after 1 hr by measuring increase in hydroxyphenyl fluorescein emission by flow cytometry analysis; type: functional, organism-based
[8] = test system: Escherichia coli; assay: Reduction of hydroxyl radical production in deltamdh knockout Escherichia coli at 5 to 25 ug/ml after 1 hr by flow cytometry analysis; type: functional, organism-based
[9] = test system: Escherichia coli; assay: Ratio of IC50 for deltaiscS knockout Escherichia coli to IC50 for Escherichia coli […]; type: functional
[10] = test system: Escherichia coli; assay: Ratio of IC50 for deltaacnB knockout Escherichia coli to IC50 for Escherichia coli […]; type: functional
[11] = test system: Escherichia coli; assay: Induction of hydroxyl radical production in Escherichia coli at 9 to 45 ug/mL after 1 hr by measuring increase in hydroxyphenyl fluorescein emission by flow cytometry analysis; type: functional, organism-based
[12] = test system: Escherichia coli; assay: Reduction of hydroxyl radical production in deltaacnB knockout Escherichia coli at 9 ug/ml after 1 hr by flow cytometry analysis; type: functional, organism-based
[13] = test system: Escherichia coli; assay: Antibacterial activity against […] knockout Escherichia coli; type: functional, organism-based
[14] = test system: Escherichia coli; assay: Antibacterial activity against deltaiscS knockout Escherichia coli; type: functional, organism-based
[15] = test system: Escherichia coli; assay: Reduction of hydroxyl radical production in deltaicdA knockout Escherichia coli at 9 to 45 ug/mL after 1 hr by flow cytometry analysis; type: functional, organism-based
[16] = test system: Escherichia coli; assay: Antibacterial activity against deltaicdA knockout Escherichia coli; type: functional, organism-based
[17] = test system: Escherichia coli; assay: Antibacterial activity against deltamdh knockout Escherichia coli; type: functional, organism-based
[18] = test system: Escherichia coli; assay: Ratio of IC50 for deltaicdA knockout Escherichia coli to IC50 for Escherichia coli […]; type: functional
[19] = test system: Escherichia coli; assay: Induction of hydroxyl radical production in deltaiscS knockout Escherichia coli at 9 to 45 ug/mL after 1 hr by measuring increase in hydroxyphenyl fluorescein emission by flow cytometry analysis; type: functional, organism-based
[20] = test system: Escherichia coli; assay: Reduction of hydroxyl radical production in deltamdh knockout Escherichia coli at 9 to 45 ug/mL after 1 hr by flow cytometry analysis; type: functional, organism-based
[21] = test system: Escherichia coli; assay: Reduction of hydroxyl radical production in […] knockout Escherichia coli at 9 to 45 ug/mL after 1 hr by flow cytometry analysis; type: functional, organism-based
[22] = test system: Escherichia coli; assay: Antibacterial activity against deltaacnB knockout Escherichia coli; type: functional, organism-based
[23] = test system: Escherichia coli; assay: Induction of hydroxyl radical production in Escherichia coli at 9 to 45 ug/mL after 2 hrs by measuring increase in hydroxyphenyl fluorescein emission by flow cytometry analysis; type: functional, organism-based
[24] = test system: Escherichia coli; assay: Induction of hydroxyl radical production in Escherichia coli at 9 to 45 ug/mL after 1 hr by measuring increase in hydroxyphenyl fluorescein emission by flow cytometry analysis in presence of thiourea; type: functional, organism-based
[25] = test system: Escherichia coli; assay: Antibacterial activity against Escherichia coli […]; type: functional, organism-based
[26] = test system: Escherichia coli; assay: Reduction of hydroxyl radical production in deltaacnB knockout Escherichia coli at 25 to 250 ng/ml after 1 hr by flow cytometry analysis; type: functional, organism-based
[27] = test system: Escherichia coli; assay: Induction of hydroxyl radical production in deltaiscS knockout Escherichia coli at 25 to 250 ng/mL after 1 hr by measuring increase in hydroxyphenyl fluorescein emission by flow cytometry analysis; type: functional, organism-based
[28] = test system: Escherichia coli; assay: Reduction of hydroxyl radical production in deltamdh knockout Escherichia coli at 25 to 250 ng/ml after 1 hr by flow cytometry analysis; type: functional, organism-based
[29] = test system: Escherichia coli; assay: Reduction of hydroxyl radical production in […] knockout Escherichia coli at 25 to 250 ng/ml after 1 hr by flow cytometry analysis; type: functional, organism-based
[30] = test system: Escherichia coli; assay: Induction of hydroxyl radical production in Escherichia coli at 25 to 250 ng/mL after 1 hr by measuring increase in hydroxyphenyl fluorescein emission by flow cytometry analysis; type: functional, organism-based
[31] = test system: Escherichia coli; assay: Induction of hydroxyl radical production in Escherichia coli at 25 to 250 ng/mL after 1 hr by measuring increase in hydroxyphenyl fluorescein emission by flow cytometry analysis in presence of thiourea; type: functional, organism-based
[32] = test system: Escherichia coli; assay: Induction of hydroxyl radical production in Escherichia coli at 25 to 250 ng/mL after 2 hrs by measuring increase in hydroxyphenyl fluorescein emission by flow cytometry analysis; type: functional, organism-based
[33] = test system: Escherichia coli; assay: Reduction of hydroxyl radical production in deltaicdA knockout Escherichia coli at 25 to 250 ng/ml after 1 hr by flow cytometry analysis; type: functional, organism-based
[34] = test system: Escherichia coli; assay: Induction of hydroxyl radical production in Escherichia coli at 5 to 15 ug/mL after 2 hrs by measuring increase in hydroxyphenyl fluorescein emission by flow cytometry analysis; type: functional, organism-based
[35] = test system: Escherichia coli; assay: Induction of hydroxyl radical production in Escherichia coli at 5 to 15 ug/mL after 1 hr by measuring increase in hydroxyphenyl fluorescein emission by flow cytometry analysis; type: functional, organism-based
[36] = test system: Escherichia coli; assay: Reduction of hydroxyl radical production in deltaicdA knockout Escherichia coli at 5 to 15 ug/ml after 1 hr by flow cytometry analysis; type: functional, organism-based
[37] = test system: Escherichia coli; assay: Induction of hydroxyl radical production in Escherichia coli at 5 to 15 ug/mL after 1 hr by measuring increase in hydroxyphenyl fluorescein emission by flow cytometry analysis in presence of thiourea; type: functional, organism-based
[38] = test system: Escherichia coli; assay: Reduction of hydroxyl radical production in deltamdh knockout Escherichia coli at 5 to 15 ug/ml after 1 hr by flow cytometry analysis; type: functional, organism-based
[39] = test system: Escherichia coli; assay: Reduction of hydroxyl radical production in […] knockout Escherichia coli at 5 to 15 ug/ml after 1 hr by flow cytometry analysis; type: functional, organism-based
[40] = test system: Escherichia coli; assay: Induction of hydroxyl radical production in deltaiscS knockout Escherichia coli at 5 to 15 ug/mL after 1 hr by measuring increase in hydroxyphenyl fluorescein emission by flow cytometry analysis; type: functional, organism-based
[41] = test system: Escherichia coli; assay: Reduction of hydroxyl radical production in deltaacnB knockout Escherichia coli at 5 to 15 ug/ml after 1 hr by flow cytometry analysis; type: functional, organism-based

Structure (SMILES): NC[C@H]1O[C@H](O[C@H]2[C@H](O)[C@@H](O[C@H]3O[C@H](CO)[C@@H](O)[C@H](N)[C@H]3O)[C@H](N)C[C@@H]2N)[C@H](O)[C@@H](O)[C@@H]1O
- Activity [1]: inactive
- Activity [2]: inactive
- Activity [3]: inactive
- Activity [4]: Active
- Activity [5]: Active
- Activity [6]: Active
- Activity [7]: inactive
- Activity [8]: inactive

Structure (SMILES): N=C(N)NCCC[C@H](N)C(=O)N[C@@H](Cc1c[nH]c2ccccc12)C(=O)NCCCC[C@H](NC(=O)[C@H](Cc1c[nH]c2ccccc12)NC(=O)[C@@H](N)CCCNC(=N)N)C(=O)NCCCC[C@H](NC(=O)[C@H](CCCCNC(=O)[C@H](Cc1c[nH]c2ccccc12)NC(=O)[C@@H](N)CCCNC(=N)N)NC(=O)[C@H](Cc1c[nH]c2ccccc12)NC(=O)[C@@H](N)CCCNC(=N)N)C(=O)NCCC(N)=O (H-RWK([Trp-Arg])K(Lys(α,ε-(ArgTrp)2))[βAla]-NH2)
- Ratio IC50 [9]: 1.5
- Ratio IC50 [10]: 1.5
- Activity [11]: Active
- Activity [12]: Active
- IC50 [13]: 8.3 µg/mL (≈ 4.51 µM)
- IC50 [14]: 9.9 µg/mL (≈ 5.37 µM)
- Activity [15]: inactive
- IC50 [16]: 9.4 µg/mL (≈ 5.1 µM)
- IC50 [17]: 7.8 µg/mL (≈ 4.23 µM)
- Ratio IC50 [18]: 1.5
- Activity [19]: inactive
- Activity [20]: inactive
- Activity [21]: inactive
- IC50 [22]: 9.7 µg/mL (≈ 5.27 µM)
- Activity [23]: Active
- Activity [24]: inactive
- IC50 [25]: 6.5 µg/mL (≈ 3.53 µM)

Structure (SMILES): CCn1cc(C(=O)O)c(=O)c2cc(F)c(N3CCNCC3)cc21
- Activity [26]: Active
- Activity [27]: inactive
- Activity [28]: inactive
- Activity [29]: inactive
- Activity [30]: Active
- Activity [31]: inactive
- Activity [32]: Active
- Activity [33]: inactive

Structure (SMILES): CC1(C)S[C@@H]2[C@H](NC(=O)[C@H](N)c3ccccc3)C(=O)N2[C@H]1C(=O)O
- Activity [34]: Active
- Activity [35]: Active
- Activity [36]: inactive
- Activity [37]: inactive
- Activity [38]: inactive
- Activity [39]: inactive
- Activity [40]: inactive
- Activity [41]: Active

From ChEMBL document CHEMBL3217597, “OH radical production stimulated by (RW)4D, a synthetic antimicrobial agent and indolicidin” (Medchemcomm, 2012)
